Reference: US7238469B2, “Carbon monoxide improves outcomes in tissue and organ transplants and suppresses apoptosis” (priority 2001, dated 2007)

Legend:
[1] = system: islets transplanted under the kidney capsule of diabetic syngeneic recipients; experiment: Syngeneic marginal mass islet transplantation, time to normoglycemia; assay type: in vivo, C57BL/6 mice; settings: 250 islets pre-incubated two hours in medium pre-saturated with 1% CO
Protocol: Cells and islets were exposed to 1% carbon monoxide in compressed air balanced with 5% CO2, as described elsewhere (see, e.g., Otterbein et al., Nature Med. 6:422–428, 2000). Islets were incubated in RPMI medium pre-saturated with carbon monoxide (4° C. overnight, 1% CO, 5% CO2) for two hours at 37° C. while treatment with 1% CO, 5% CO2 was continued.
Male C57BL/6 were purchased from Charles River Laboratories (Wilmington, Mass.) and housed in accordance with guidelines from the NIH. The experiments were approved by the Institutional Animal Care and Use Committee (IACUC). Recipient mice (8 weeks old) were rendered diabetic by a single intraperitoneal injection (220 mg/kg) of StreptozotocinO (Sigma) dissolved in citrate buffer. Mice received transplants if 2 consecutive non-fasting blood glucose levels of greater than 350 mg/dl were obtained from a whole blood sample.
250 islets 150–250 îm in diameter were hand-picked using a dissecting microscope. Islets were transplanted under the kidney capsule as described previously (Kaufman et al., J. Exp. Med. 172:291–302, 1990). […]
Whether carbon monoxide pre-incubation of islet grafts prior to transplantation results in better functional performance in vivo was investigated (FIGS. 6A–B). […] After transplantation, blood glucose levels were determined on a daily basis. […]

p38 MAPK = biological target: T1, p38 MAPK (Bos taurus, UniProt A6QLR9); assay type: cell-based, bovine; settings: BAECs; CO 10,000 ppm
T1 construct: endogenous in cells; host or cells: bovine aortic endothelial cells (BAEC)
T1 sequence (A6QLR9 1-360): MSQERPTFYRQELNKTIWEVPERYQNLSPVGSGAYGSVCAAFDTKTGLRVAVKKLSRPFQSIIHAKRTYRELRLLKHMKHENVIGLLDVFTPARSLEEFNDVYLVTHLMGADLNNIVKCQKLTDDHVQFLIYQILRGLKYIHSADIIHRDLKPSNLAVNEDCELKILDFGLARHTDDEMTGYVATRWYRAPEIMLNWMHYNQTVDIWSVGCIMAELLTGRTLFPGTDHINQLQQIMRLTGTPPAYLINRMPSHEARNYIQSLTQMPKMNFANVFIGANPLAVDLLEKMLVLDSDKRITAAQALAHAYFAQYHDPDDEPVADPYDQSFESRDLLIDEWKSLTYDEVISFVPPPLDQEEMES

## [C-]#[O+] [CO, carbon monoxide]
[1]
  time needed to reach normoglycemia (median): 7 days
p38 MAPK
  p38 MAPK activation: activated p38 MAPK even in the absence of TNF-α
